Columns and labels:
Type in all cases: in vivo
[1] = system: Puccinia recondita tritici (leaf rust); assay: Greenhouse Test 1, foliar spray fungicide screen (LEAF RUST), host wheat; details: disease control rating, 400 ppm (+++ at 100 ppm)
[2] = system: Cercospora beticola (leaf spot); assay: Greenhouse Test 1, foliar spray fungicide screen (LEAF SPOT), host sugar beet; details: disease control rating, 400 ppm (+++ at 100 ppm)
[3] = system: southern armyworm (Spodopetra eridania Cramer); assay: Mite/insect screen, sprayed squash leaves (SAW); details: Spodoptera eridania, percent mortality, read-out: SAW RESULTS %; for mortality at 200 ppm: spray rate 200 ppm; for mortality at 400 ppm: spray rate 400 ppm
Summary of the method: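 Mortality and phytotoxicity read after standard exposure periods on sprayed squash: cotyledons for melon aphids and twospotted spider mites, excised leaves placed with southern armyworm larvae. Spray solutions were water dilutions of acetone/alcohol stocks containing TOXIMUL R and S emulsifiers, applied to runoff at 10 psi and air-dried one hour.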

[4] = system: Pyricularia oryzae (rice blast); details: disease control rating, foliar spray, host rice; 400 ppm (+++ at 100 ppm)
[5] = system: melon aphids (Aphis gossypii Glover); assay: Mite/insect screen, sprayed squash cotyledons (MA); details: Aphis gossypii, percent mortality, read-out: MA RESULTS %; for mortality at 200 ppm: spray rate 200 ppm; for mortality at 400 ppm: spray rate 400 ppm
Summary of the method: (§1)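 Compounds were dissolved in 50:50 acetone/alcohol containing sulfonate/nonionic emulsifier blends (23 g and 13 g per liter) and diluted with water to test concentrations. Leaves were sprayed on both surfaces to runoff and dried for one hour. Percent mortality and phytotoxicity were scored after standard exposure periods.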

[6] = system: Venturia inaequalis (apple scab); assay: Greenhouse Test 1, foliar spray fungicide screen (APPL SCAB), host apple seedling; details: disease control rating, 400 ppm (+++ at 100 ppm)
[7] = system: Pseudoperonospora cubensis (downy mildew); assay: Greenhouse Test 1, foliar spray fungicide screen (DOWN MDEW), host squash; details: disease control rating, 400 ppm (+++ at 100 ppm)
[8] = system: Septoria tritici (leaf blotch); assay: Greenhouse Test 1, foliar spray fungicide screen (LEAF BLOT), host wheat; details: disease control rating, 400 ppm (+++ at 100 ppm)
[9] = system: Erysiphe graminis tritici (powdery mildew); assay: Greenhouse Test 1, foliar spray fungicide screen (POWD MDEW), host wheat; details: disease control rating, 400 ppm (+++ at 100 ppm)
[10] = system: Twospotted spider mites (Tetranychus urticae Koch); assay: Mite/insect screen, sprayed squash cotyledons (SM); details: Tetranychus urticae, percent mortality, read-out: SM RESULTS %; for mortality at 200 ppm: spray rate 200 ppm; for mortality at 400 ppm: spray rate 400 ppm
Summary of the method: as §1

[11] = system: Southern corn rootworm (Diabrotica undecimpuctata howardi Barber); assay: Mite/insect screen, soil treatment (CRW); details: Diabrotica, percent mortality, soil treatment, read-out: CRW RESULTS %; for mortality at 12 ppm: CRW rate 12.00 ppm; for mortality at 24 ppm: CRW rate 24.00 ppm
Summary of the method: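 Five 2–3 instar larvae were placed on dry sandy soil with a presoaked corn seed after the soil had received 1 mL of compound solution and dried 6–12 h; cups were kept capped at 23°C. Mortality (%) and phytotoxicity were read after standard exposure. Formulation: acetone/alcohol with emulsifiers, water-diluted.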

[12] = system: Botrytis cinerea (gray mold); assay: Greenhouse Test 1, foliar spray fungicide screen (GRAY MOLD), host grape berries; details: disease control rating, 400 ppm (+++ at 100 ppm)

c1csc(CCOc2ncnc3ccccc23)c1 [Example 54, 4-[2-(2-thienyl)ethoxy]quinazoline]
LEAF RUST [1]: ++ (++ = 90-100% control at 400 ppm)
LEAF SPOT [2]: + (+ = 20-89% control at 400 ppm)
mortality at 200 ppm [3]: 0%
RICE BLAST [4]: ++ (++ = 90-100% control at 400 ppm)
mortality at 200 ppm [5]: 0%
APPL SCAB [6]: + (+ = 20-89% control at 400 ppm)
DOWN MDEW [7]: ++ (++ = 90-100% control at 400 ppm)
LEAF BLOT [8]: + (+ = 20-89% control at 400 ppm)
POWD MDEW [9]: ++ (++ = 90-100% control at 400 ppm)
mortality at 200 ppm [10]: 0%
mortality at 12 ppm [11]: 0%
GRAY MOLD [12]: - (- = 0-19% control at 400 ppm)

CC(=O)N(CCc1ccc(-c2ccccc2)cc1)c1ncnc2ccccc12 [Example 108, N-[2-(1,1'-biphenyl)-4-ylethyl]-N-(4-quinazolinyl)acetamide]
LEAF RUST [1]: + (+ = 20-89% control at 400 ppm)
LEAF SPOT [2]: ++ (++ = 90-100% control at 400 ppm)
mortality at 200 ppm [3]: 0%
mortality at 400 ppm [3]: 0%
RICE BLAST [4]: +++ (+++ = 90-100% control at 100 ppm)
mortality at 200 ppm [5]: 30%
mortality at 400 ppm [5]: 20%
APPL SCAB [6]: - (- = 0-19% control at 400 ppm)
DOWN MDEW [7]: +++ (+++ = 90-100% control at 100 ppm)
LEAF BLOT [8]: +++ (+++ = 90-100% control at 100 ppm)
POWD MDEW [9]: + (+ = 20-89% control at 400 ppm)
mortality at 200 ppm [10]: 60%
mortality at 400 ppm [10]: 90%
mortality at 12 ppm [11]: 0%
mortality at 24 ppm [11]: 0%
GRAY MOLD [12]: - (- = 0-19% control at 400 ppm)

c1ccc(CCCNc2nc(NCCCc3ccccc3)c3ccccc3n2)cc1 [Example 24, N,N'-bis(3-phenylpropyl)-2,4-quinazolinediamine]
LEAF RUST [1]: + (+ = 20-89% control at 400 ppm)
LEAF SPOT [2]: - (- = 0-19% control at 400 ppm)
mortality at 200 ppm [3]: 0%
RICE BLAST [4]: + (+ = 20-89% control at 400 ppm)
mortality at 200 ppm [5]: 0%
APPL SCAB [6]: - (- = 0-19% control at 400 ppm)
DOWN MDEW [7]: +++ (+++ = 90-100% control at 100 ppm)
LEAF BLOT [8]: - (- = 0-19% control at 400 ppm)
POWD MDEW [9]: + (+ = 20-89% control at 400 ppm)
mortality at 200 ppm [10]: 0%
mortality at 12 ppm [11]: 0%
GRAY MOLD [12]: - (- = 0-19% control at 400 ppm)

CC(Cc1ccccc1)Nc1nc(NC(C)Cc2ccccc2)c2ccccc2n1 (centres unmarked) [Example 26, N,N'-bis(1-methyl-2-phenylethyl)-2,4-quinazolinediamine]
LEAF RUST [1]: ++ (++ = 90-100% control at 400 ppm)
LEAF SPOT [2]: + (+ = 20-89% control at 400 ppm)
mortality at 200 ppm [3]: 0%
RICE BLAST [4]: ++ (++ = 90-100% control at 400 ppm)
mortality at 200 ppm [5]: 0%
APPL SCAB [6]: - (- = 0-19% control at 400 ppm)
DOWN MDEW [7]: +++ (+++ = 90-100% control at 100 ppm)
LEAF BLOT [8]: + (+ = 20-89% control at 400 ppm)
POWD MDEW [9]: - (- = 0-19% control at 400 ppm)
mortality at 200 ppm [10]: 0%
mortality at 12 ppm [11]: 0%
GRAY MOLD [12]: - (- = 0-19% control at 400 ppm)

CC(CNc1nc(NCC(C)c2ccccc2)c2ccccc2n1)c1ccccc1 (centres unmarked) [Example 27, N,N'-bis(2-phenylpropyl)-2,4-quinazolinediamine]
LEAF RUST [1]: + (+ = 20-89% control at 400 ppm)
LEAF SPOT [2]: - (- = 0-19% control at 400 ppm)
mortality at 200 ppm [3]: 0%
RICE BLAST [4]: + (+ = 20-89% control at 400 ppm)
mortality at 200 ppm [5]: 0%
APPL SCAB [6]: - (- = 0-19% control at 400 ppm)
DOWN MDEW [7]: +++ (+++ = 90-100% control at 100 ppm)
LEAF BLOT [8]: + (+ = 20-89% control at 400 ppm)
POWD MDEW [9]: - (- = 0-19% control at 400 ppm)
mortality at 200 ppm [10]: 0%
mortality at 12 ppm [11]: 0%
GRAY MOLD [12]: - (- = 0-19% control at 400 ppm)

Fc1cccc2c(NCCc3ccc4ccccc4c3)ncnc12 [Example 31, 8-fluoro-N-[2-(2-naphthyl)ethyl]-4-quinazolinamine]
LEAF RUST [1]: +++ (+++ = 90-100% control at 100 ppm)
LEAF SPOT [2]: + (+ = 20-89% control at 400 ppm)
mortality at 200 ppm [3]: 80%
mortality at 400 ppm [3]: 30%
RICE BLAST [4]: +++ (+++ = 90-100% control at 100 ppm)
mortality at 200 ppm [5]: 40%
mortality at 400 ppm [5]: 0%
APPL SCAB [6]: - (- = 0-19% control at 400 ppm)
DOWN MDEW [7]: ++ (++ = 90-100% control at 400 ppm)
LEAF BLOT [8]: +++ (+++ = 90-100% control at 100 ppm)
POWD MDEW [9]: + (+ = 20-89% control at 400 ppm)
mortality at 200 ppm [10]: 0%
mortality at 400 ppm [10]: 0%
mortality at 12 ppm [11]: 0%
mortality at 24 ppm [11]: 0%
GRAY MOLD [12]: - (- = 0-19% control at 400 ppm)

c1ccc(CCCc2ncnc3ccccc23)cc1 [Example 29, 4-(3-phenylpropyl)quinazoline]
LEAF RUST [1]: ++ (++ = 90-100% control at 400 ppm)
LEAF SPOT [2]: - (- = 0-19% control at 400 ppm)
mortality at 400 ppm [3]: 0%
RICE BLAST [4]: +++ (+++ = 90-100% control at 100 ppm)
mortality at 400 ppm [5]: 80%
APPL SCAB [6]: + (+ = 20-89% control at 400 ppm)
DOWN MDEW [7]: ++ (++ = 90-100% control at 400 ppm)
LEAF BLOT [8]: - (- = 0-19% control at 400 ppm)
POWD MDEW [9]: + (+ = 20-89% control at 400 ppm)
mortality at 400 ppm [10]: 80%
mortality at 24 ppm [11]: 0%
GRAY MOLD [12]: - (- = 0-19% control at 400 ppm)
